Experimental data: the supplement of paper PMC6045584
± gives the standard deviation of the averaged measurements.

Key:
ABT-737 = compound: CN(C)CC[C@H](CSc1ccccc1)Nc1ccc(S(=O)(=O)NC(=O)c2ccc(N3CCN(Cc4ccccc4-c4ccc(Cl)cc4)CC3)cc2)cc1[N+](=O)[O-] [ABT-737]; experiment: surviving fraction relative to DMSO-only wells; higher = less growth inhibition; details: exposure time: 5 days
Summary of the method: (§1)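 Inhibitors were tested at 0.5, 1, 5, 10, 50, 100, 500 and 1000 nM, applied continuously for five days beginning 24 hours after log-phase tumour cells were seeded at 250–500 per well in 384-well plates. CellTiter-Glo luminescence served as the viability measure, expressed as surviving fraction against the median of DMSO-only wells. Each line, screened three times, was kept only with replicate Pearson r >0.7 and median Z' >0.3.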

FLUOROURACIL = compound: O=c1[nH]cc(F)c(=O)[nH]1 [FLUOROURACIL]; experiment: as above; details: exposure time: 5 days
Summary of the method: as §1

Test System | surviving fraction (ABT-737; 0.5 nM) | surviving fraction (ABT-737; 1 nM) | surviving fraction (ABT-737; 5 nM) | surviving fraction (ABT-737; 10 nM) | surviving fraction (ABT-737; 50 nM) | surviving fraction (ABT-737; 100 nM) | surviving fraction (ABT-737; 500 nM) | surviving fraction (ABT-737; 1000 nM) | surviving fraction (FLUOROURACIL; 0.5 nM) | surviving fraction (FLUOROURACIL; 1 nM) | surviving fraction (FLUOROURACIL; 5 nM) | surviving fraction (FLUOROURACIL; 10 nM) | surviving fraction (FLUOROURACIL; 50 nM) | surviving fraction (FLUOROURACIL; 100 nM) | surviving fraction (FLUOROURACIL; 500 nM) | surviving fraction (FLUOROURACIL; 1000 nM)
DU4475 BREAST | 0.935 ± 0.13 | 0.973 ± 0.042 | 0.943 ± 0.13 | 0.865 ± 0.1 | 0.797 ± 0.13 | 0.715 ± 0.012 | 0.373 ± 0.067 | 0.203 ± 0.047 | 0.972 ± 0.062 | 1.06 ± 0.068 | 0.934 ± 0.12 | 1.13 ± 0.12 | 1.01 ± 0.16 | 0.987 ± 0.27 | 1.06 ± 0.081 | 0.939 ± 0.1
H23 LUNG | 1.01 ± 0.043 | 1.06 ± 0.077 | 1.05 ± 0.066 | 1.06 ± 0.017 | 1.07 ± 0.067 | 1.1 ± 0.087 | 1.08 ± 0.065 | 1.048 ± 0.004 | 1.06 ± 0.062 | 1.02 ± 0.034 | 1.05 ± 0.026 | 1.04 ± 0.036 | 1.1 ± 0.061 | 1.02 ± 0.046 | 1.04 ± 0.044 | 0.659 ± 0.029
HCC78 LUNG | 0.9693 ± 0.0035 | 0.955 ± 0.076 | 0.969 ± 0.1 | 1.08 ± 0.15 | 1.04 ± 0.062 | 0.92 ± 0.2 | 0.967 ± 0.19 | 0.939 ± 0.2 | 1.01 ± 0.16 | 0.913 ± 0.1 | 1.19 ± 0.12 | 0.986 ± 0.062 | 1.28 ± 0.093 | 1.1 ± 0.15 | 0.973 ± 0.1 | 0.432 ± 0.036
HCC202 BREAST | 1.36 ± 0.084 | 1.17 ± 0.2 | 1.07 ± 0.069 | 1.43 ± 0.17 | 1.1 ± 0.16 | 1.31 ± 0.17 | 1.15 ± 0.5 | 0.965 ± 0.018 | 1.03 ± 0.41 | 1.22 ± 0.26 | 1.02 ± 0.15 | 1.13 ± 0.24 | 0.966 ± 0.12 | 1.15 ± 0.52 | 0.895 ± 0.3 | 0.866 ± 0.29
HCC1395 BREAST | 1.15 ± 0.075 | 1.14 ± 0.053 | 1.27 ± 0.047 | 1.25 ± 0.061 | 1.19 ± 0.024 | 1.32 ± 0.033 | 1.12 ± 0.069 | 1.1 ± 0.065 | 1.01 ± 0.093 | 0.966 ± 0.21 | 1.13 ± 0.1 | 1.16 ± 0.072 | 0.945 ± 0.1 | 0.955 ± 0.12 | 0.887 ± 0.053 | 0.947 ± 0.077
HCC1806 BREAST | 1.06 ± 0.057 | 1.02 ± 0.15 | 1.16 ± 0.081 | 1.207 ± 0.008 | 1.17 ± 0.11 | 1.16 ± 0.067 | 1.05 ± 0.074 | 1.13 ± 0.04 | 1.1 ± 0.028 | 1.02 ± 0.12 | 1.08 ± 0.043 | 0.973 ± 0.081 | 0.992 ± 0.069 | 0.939 ± 0.065 | 0.737 ± 0.12 | 0.601 ± 0.033
HCC1954 BREAST | 1.09 ± 0.11 | 1.02 ± 0.092 | 1.21 ± 0.047 | 1.25 ± 0.033 | 0.878 ± 0.17 | 0.917 ± 0.26 | 0.674 ± 0.15 | 0.564 ± 0.092 | 1.13 ± 0.31 | 1.21 ± 0.17 | 1.13 ± 0.07 | 1.26 ± 0.21 | 0.572 ± 0.11 | 0.629 ± 0.063 | 0.681 ± 0.095 | 0.571 ± 0.018
HCT15 LARGE INTESTINE | 1.02 ± 0.1 | 1.02 ± 0.14 | 1.02 ± 0.12 | 1.02 ± 0.17 | 1.1 ± 0.073 | 1.08 ± 0.094 | 1.03 ± 0.11 | 1.09 ± 0.029 | 1.05 ± 0.062 | 1.01 ± 0.051 | 1.043 ± 0.01 | 0.995 ± 0.06 | 0.976 ± 0.069 | 0.878 ± 0.048 | 0.262 ± 0.013 | 0.163 ± 0.0084
HELA CERVIX | 1.05 ± 0.04 | 1.05 ± 0.04 | 1.06 ± 0.017 | 1.06 ± 0.047 | 1.14 ± 0.085 | 1.11 ± 0.084 | 1.2 ± 0.13 | 1.16 ± 0.07 | 1.07 ± 0.017 | 0.993 ± 0.031 | 0.997 ± 0.019 | 1.03 ± 0.037 | 1.01 ± 0.062 | 1.06 ± 0.027 | 1.3 ± 0.035 | 1.15 ± 0.096
HOS BONE | 1.01 ± 0.028 | 1.03 ± 0.013 | 1.03 ± 0.026 | 1.03 ± 0.02 | 1.06 ± 0.016 | 1.084 ± 0.0046 | 1.08 ± 0.046 | 1.03 ± 0.021 | 1.05 ± 0.025 | 1.01 ± 0.017 | 1.02 ± 0.015 | 0.99 ± 0.015 | 1.03 ± 0.039 | 1.01 ± 0.034 | 0.8203 ± 0.0081 | 0.639 ± 0.032
HOSMNG BONE | 0.879 ± 0.057 | 0.942 ± 0.099 | 0.888 ± 0.06 | 0.893 ± 0.073 | 0.928 ± 0.072 | 1 ± 0.075 | 0.921 ± 0.12 | 0.944 ± 0.11 | 0.969 ± 0.012 | 1.03 ± 0.037 | 0.933 ± 0.024 | 0.962 ± 0.043 | 1.12 ± 0.13 | 1.19 ± 0.042 | 1.03 ± 0.031 | 1.02 ± 0.037
HSSYII SYNOVIAL | 1.03 ± 0.064 | 0.999 ± 0.044 | 0.99 ± 0.043 | 0.972 ± 0.045 | 1.12 ± 0.054 | 0.859 ± 0.041 | 0.637 ± 0.017 | 0.54 ± 0.079 | 0.933 ± 0.045 | 0.938 ± 0.078 | 0.992 ± 0.075 | 0.949 ± 0.043 | 0.942 ± 0.016 | 0.911 ± 0.059 | 0.906 ± 0.028 | 0.853 ± 0.02
HT1080 SOFT TISSUE | 1.06 ± 0.045 | 1.06 ± 0.018 | 1.05 ± 0.022 | 1.07 ± 0.045 | 1 ± 0.028 | 1.05 ± 0.029 | 1.01 ± 0.032 | 1.02 ± 0.028 | 1.06 ± 0.016 | 1.087 ± 0.0087 | 1.07 ± 0.0075 | 1.07 ± 0.029 | 0.965 ± 0.061 | 0.991 ± 0.021 | 0.637 ± 0.063 | 0.406 ± 0.019
HU09 BONE | 1.08 ± 0.08 | 1.07 ± 0.12 | 1.1 ± 0.0064 | 1.06 ± 0.065 | 0.988 ± 0.063 | 0.912 ± 0.08 | 0.697 ± 0.031 | 0.617 ± 0.027 | 1.06 ± 0.13 | 0.966 ± 0.045 | 1.1 ± 0.022 | 1.1 ± 0.038 | 0.985 ± 0.092 | 0.941 ± 0.051 | 0.693 ± 0.091 | 0.604 ± 0.031
HUO3N1 BONE | 1.03 ± 0.027 | 1.07 ± 0.012 | 1.1 ± 0.041 | 1.1 ± 0.035 | 1.09 ± 0.074 | 1.05 ± 0.039 | 0.994 ± 0.064 | 0.943 ± 0.02 | 1 ± 0.047 | 1.06 ± 0.02 | 1.09 ± 0.031 | 1.07 ± 0.05 | 1.03 ± 0.059 | 0.99 ± 0.046 | 0.973 ± 0.036 | 0.91 ± 0.029
JIMT1 BREAST | 1.02 ± 0.048 | 1.05 ± 0.016 | 1.019 ± 0.0045 | 1.018 ± 0.0065 | 1.04 ± 0.037 | 1.07 ± 0.06 | 1.06 ± 0.054 | 1.08 ± 0.032 | 0.932 ± 0.0056 | 0.899 ± 0.021 | 0.979 ± 0.033 | 0.9068 ± 0.0066 | 0.94 ± 0.038 | 0.884 ± 0.062 | 0.948 ± 0.066 | 0.866 ± 0.076
